The source of these data is US11702429B2, “mTORC modulators and uses thereof” (Aeovian Pharmaceuticals, Inc., priority 2019, dated 2023).

The target in one experiment is T1, mTORC2 (Homo sapiens, UniProt P42345+P62942).
T1 construct: endogenous in cells; host or cells: PC3 cells (human prostate adenocarcinoma)
Nature of the experiment: Inhibition assay for mTORC2: phosphorylation of pAkt at Ser473, AlphaLISA in PC3 cells. Format: cell-based. The settings on record: for pIC50 mTORC2: PC3 cells, treated 24 hours, pAkt Ser473, AlphaLISA, C16 diastereomer mixtures not separated; for IC50: read-out: pIC50 mTORC2 (converted). The protocol: (§1) The IC50s of the inhibition of mTORC1 and mTORC2 were determined in vitro by determining the phosphorylation of pS6K at position Thr389 (mTORC1 inhibition) and pAkt at Ser473 (mTORC2 inhibition). In vitro studies were performed with AlphaLISA® technology using PC3 cells (Prostate Adenocarcinoma; Human (Homo sapiens)). The cells were seeded in 96 well plates and were treated for 24 hours with the different compounds. […] All analysis were performed using GraphPad Prism 7.0 (GraphPad Software, San Diego, USA).

Another experiment has as its target T2, mTORC1 (Homo sapiens, UniProt P42345+P62942).
T2 construct: endogenous in cells; host or cells: PC3 cells (human prostate adenocarcinoma)
Nature of the experiment: Inhibition assay for mTORC1: phosphorylation of pS6K at Thr389, AlphaLISA in PC3 cells. Particulars: for pIC50 mTORC1: PC3 cells, treated 24 hours, pS6K Thr389, AlphaLISA, C16 diastereomer mixtures not separated; for IC50: read-out: pIC50 mTORC1 (converted). Format: cell-based. The method, then:
as §1
Background: In Alpha technology, singlet oxygen from a donor bead excites a nearby acceptor bead.

A value given as a limit tells only on which side of the number the result lay.

T1 sequence (P62942 2-108 limits assumed, other chains not shown): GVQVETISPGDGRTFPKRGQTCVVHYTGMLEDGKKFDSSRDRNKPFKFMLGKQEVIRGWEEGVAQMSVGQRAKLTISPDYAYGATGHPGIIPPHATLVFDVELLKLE

For `COCCCO[C@@H]1CC[C@@H](C[C@@H](C)[C@@H]2CC(=O)[C@H](C)/C=C(\C)[C@@H](O)[C@@H](OC)C(=O)[C@H](C)C[C@H](C)/C=C/C=C/C=C(\C)C(OCCOC)C[C@@H]3CC[C@@H](C)[C@@](O)(O3)C(=O)C(=O)N3CCCCC3C(=O)O2)C[C@H]1OC` (stereo partly shown) [Compound 14], the “pIC50 mTORC2” value on mTORC2 was “A (PIC50 for mTORC2 of <5 as A)”. Besides, the “pIC50 mTORC1” value at mTORC1 is given as “A (pIC50 for mTORC1 of >9.5 as A)”.
Turning to `CO[C@@H]1C[C@H](C[C@@H](C)[C@@H]2CC(=O)[C@H](C)/C=C(\C)[C@@H](O)[C@@H](OC)C(=O)[C@H](C)C[C@H](C)/C=C/C=C/C=C(\C)C(OCCO)C[C@@H]3CC[C@@H](C)[C@@](O)(O3)C(=O)C(=O)N3CCCCC3C(=O)O2)CC[C@H]1OCCCN1C[C@@H](C)O[C@@H](C)C1` (stereo partly shown) [Compound 18], the “pIC50 mTORC2” value on mTORC2 is given as “A (PIC50 for mTORC2 of <5 as A)”. Also, on mTORC1, the “pIC50 mTORC1” value was “A (pIC50 for mTORC1 of >9.5 as A)”.
Taken in the same sequence, the figures for `COCCCOC1CC2CCC(C)C(O)(O2)C(=O)C(=O)N2CCCCC2C(=O)OC(C(C)CC2CCC(OCCCO)C(OC)C2)CC(=O)C(C)C=C(C)C(O)C(OC)C(=O)C(C)CC(C)C=CC=CC=C1C` (stereo not shown) [Compound 33] were “B (5 to 6 as B)” and “A (pIC50 for mTORC1 of >9.5 as A)”.
Taken in the same sequence, the figures for `COCCOC1CC2CCC(C)C(O)(O2)C(=O)C(=O)N2CCCCC2C(=O)OC(C(C)CC2CCC(OCCO)C(OC)C2)CC(=O)C(C)C=C(C)C(O)C(OC)C(=O)C(C)CC(C)C=CC=CC=C1C` (stereo not shown) [Compound 40] were “B (5 to 6 as B)” and “A (pIC50 for mTORC1 of >9.5 as A)”.
On the same counts, the results for `CO[C@@H]1C[C@H](C[C@@H](C)[C@@H]2CC(=O)[C@H](C)/C=C(\C)[C@@H](O)[C@@H](OC)C(=O)[C@H](C)C[C@H](C)/C=C/C=C/C=C(\C)C(OCCO)C[C@@H]3CC[C@@H](C)[C@@](O)(O3)C(=O)C(=O)N3CCCCC3C(=O)O2)CC[C@H]1OCCCN1CCO[C@H](C)C1` (stereo partly shown) [Compound 43] are “B (5 to 6 as B)” and “A (pIC50 for mTORC1 of >9.5 as A)”.
As for `COCCOC1CC2CCC(C)C(O)(O2)C(=O)C(=O)N2CCCCC2C(=O)OC(C(C)CC2CCC(OCC(O)CO)C(OC)C2)CC(=O)C(C)C=C(C)C(O)C(OC)C(=O)C(C)CC(C)C=CC=CC=C1C` (stereo not shown) [Compound 45], on mTORC2, the “pIC50 mTORC2” value was “B (5 to 6 as B)”. For the same compound, the “pIC50 mTORC1” value on mTORC1 is recorded as “A (pIC50 for mTORC1 of >9.5 as A)”.
As to `CO[C@@H]1C[C@H](C[C@@H](C)[C@@H]2CC(=O)[C@H](C)/C=C(\C)[C@@H](O)[C@@H](OC)C(=O)[C@H](C)C[C@H](C)/C=C/C=C/C=C(\C)C(OCCO)C[C@@H]3CC[C@@H](C)[C@@](O)(O3)C(=O)C(=O)N3CCCCC3C(=O)O2)CC[C@H]1OC(=O)NCCO` (stereo partly shown) [Compound 64], the “pIC50 mTORC2” value at mTORC2 is reported as “A (PIC50 for mTORC2 of <5 as A)”. Also, at mTORC1, the “pIC50 mTORC1” value is recorded as “B (8.5 to 9.5 as B)”.
Consider `CO[C@@H]1C[C@H](C[C@@H](C)[C@@H]2CC(=O)[C@H](C)/C=C(\C)[C@@H](O)[C@@H](OC)C(=O)[C@H](C)C[C@H](C)/C=C/C=C/C=C(\C)C(OC[C@H](O)c3ccccc3)C[C@@H]3CC[C@@H](C)[C@@](O)(O3)C(=O)C(=O)N3CCCCC3C(=O)O2)CC[C@H]1OCCO` (stereo partly shown) [Compound 88], for which, on mTORC2, the “pIC50 mTORC2” value is reported as “B (5 to 6 as B)”. Also, the “pIC50 mTORC1” value at mTORC1 is “A (pIC50 for mTORC1 of >9.5 as A)”.
For `CO[C@@H]1C[C@H](C[C@@H](C)[C@@H]2CC(=O)[C@H](C)/C=C(\C)[C@@H](O)[C@@H](OC)C(=O)[C@H](C)C[C@H](C)/C=C/C=C/C=C(\C)C(SC(C)C)C[C@@H]3CC[C@@H](C)[C@@](O)(O3)C(=O)C(=O)N3CCCCC3C(=O)O2)CC[C@H]1O` (stereo partly shown) [Compound 201], the figures for the IC50 at mTORC2 and at mTORC1 were 1000 to 10000 nM and over 3.16 nM, respectively.
For the compound `CO[C@@H]1C[C@H](C[C@@H](C)[C@@H]2CC(=O)[C@H](C)/C=C(\C)[C@@H](O)[C@@H](OC)C(=O)[C@H](C)C[C@H](C)/C=C/C=C/C=C(\C)C(c3ccc(C)s3)C[C@@H]3CC[C@@H](C)[C@@](O)(O3)C(=O)C(=O)N3CCCCC3C(=O)O2)CC[C@H]1O` (stereo partly shown) [Compound 202], the IC50 at mTORC2 is 1000 to 10000 nM; at mTORC1, over 3.16 nM.
Turning to `CO[C@@H]1C[C@H](C[C@@H](C)[C@@H]2CC(=O)[C@H](C)/C=C(\C)[C@@H](O)[C@@H](OC)C(=O)[C@H](C)C[C@H](C)/C=C/C=C/C=C(\C)C(c3cc(C)cs3)C[C@@H]3CC[C@@H](C)[C@@](O)(O3)C(=O)C(=O)N3CCCCC3C(=O)O2)CC[C@H]1O` (stereo partly shown) [Compound 203], the IC50 at mTORC2 was 1000 to 10000 nM; at mTORC1, over 3.16 nM.
On the same counts, the results for `CO[C@@H]1C[C@H](C[C@@H](C)[C@@H]2CC(=O)[C@H](C)/C=C(\C)[C@@H](O)[C@@H](OC)C(=O)[C@H](C)C[C@H](C)/C=C/C=C/C=C(\C)C(O[C@H](CO)c3ccccc3)C[C@@H]3CC[C@@H](C)[C@@](O)(O3)C(=O)C(=O)N3CCCCC3C(=O)O2)CC[C@H]1O` (stereo partly shown) [Compound 204] are under 1000 nM and under 0.316 nM.
Taken in the same sequence, the figures for `CO[C@@H]1C[C@H](C[C@@H](C)[C@@H]2CC(=O)[C@H](C)/C=C(\C)[C@@H](O)[C@@H](OC)C(=O)[C@H](C)C[C@H](C)/C=C/C=C/C=C(\C)C(OCc3ccccc3)C[C@@H]3CC[C@@H](C)[C@@](O)(O3)C(=O)C(=O)N3CCCCC3C(=O)O2)CC[C@H]1O` (stereo partly shown) [Compound 205] were under 1000 nM and under 0.316 nM.
Taken in the same sequence, the figures for `CO[C@H](COC1C[C@@H]2CC[C@@H](C)[C@@](O)(O2)C(=O)C(=O)N2CCCCC2C(=O)O[C@H]([C@H](C)C[C@@H]2CC[C@@H](O)[C@H](OC)C2)CC(=O)[C@H](C)/C=C(\C)[C@@H](O)[C@@H](OC)C(=O)[C@H](C)C[C@H](C)/C=C/C=C/C=C/1C)c1ccccc1` (stereo partly shown) [Compound 206] were 1000 to 10000 nM and 0.316 to 3.16 nM.
With `CO[C@@H]1C[C@H](C[C@@H](C)[C@@H]2CC(=O)[C@H](C)/C=C(\C)[C@@H](O)[C@@H](OC)C(=O)[C@H](C)C[C@H](C)/C=C/C=C/C=C(\C)C(OCCCc3ccccc3)C[C@@H]3CC[C@@H](C)[C@@](O)(O3)C(=O)C(=O)N3CCCCC3C(=O)O2)CC[C@H]1O` (stereo partly shown) [Compound 207], the results for the IC50 at mTORC2 and at mTORC1 were 1000 to 10000 nM and 0.316 to 3.16 nM, respectively.
Take `CO[C@@H]1C[C@H](C[C@@H](C)[C@@H]2CC(=O)[C@H](C)/C=C(\C)[C@@H](O)[C@@H](OC)C(=O)[C@H](C)C[C@H](C)/C=C/C=C/C=C(\C)C(OC(C)C)C[C@@H]3CC[C@@H](C)[C@@](O)(O3)C(=O)C(=O)N3CCCCC3C(=O)O2)CC[C@H]1O` (stereo partly drawn) [Compound 208, (1R,9S,12S,15R,16E,18R,19R,21R,23S,24E,26E,28E,32S,35R)-1,18-dihydroxy-12-[(1R)-2-[(1S,3R,4R)-4-hydroxy-3-methoxy-cyclohexyl]-1-methyl-ethyl]-30-isopropoxy-19-methoxy-15,17,21,23,29,35-hexamethyl-11,36-dioxa-4-azatricyclo[30.3.1.0^4,9]hexatriaconta-16,24,26,28-tetraene-2,3,10,14,20-pentone]: the IC50 on mTORC2 is 1000 to 10000 nM; at mTORC1 it was 0.316 to 3.16 nM.
Turning to `CO[C@@H]1C[C@H](C[C@@H](C)[C@@H]2CC(=O)[C@H](C)/C=C(\C)[C@@H](O)[C@@H](OC)C(=O)[C@H](C)C[C@H](C)/C=C/C=C/C=C(\C)C(OC3CC3)C[C@@H]3CC[C@@H](C)[C@@](O)(O3)C(=O)C(=O)N3CCCCC3C(=O)O2)CC[C@H]1O` (stereo partly shown) [Compound 209], the IC50 on mTORC2 is under 1000 nM; at mTORC1, under 0.316 nM.
On the same counts, the results for `CO[C@@H]1C[C@H](C[C@@H](C)[C@@H]2CC(=O)[C@H](C)/C=C(\C)[C@@H](O)[C@@H](OC)C(=O)[C@H](C)C[C@H](C)/C=C/C=C/C=C(\C)C(OCCCO)C[C@@H]3CC[C@@H](C)[C@@](O)(O3)C(=O)C(=O)N3CCCCC3C(=O)O2)CC[C@H]1O` (stereo partly shown) [Compound 210] are under 1000 nM and 0.316 to 3.16 nM.
Taken in the same sequence, the figures for `CO[C@@H]1C[C@H](C[C@@H](C)[C@@H]2CC(=O)[C@H](C)/C=C(\C)[C@@H](O)[C@@H](OC)C(=O)[C@H](C)C[C@H](C)/C=C/C=C/C=C(\C)C(OCCc3ccccc3)C[C@@H]3CC[C@@H](C)[C@@](O)(O3)C(=O)C(=O)N3CCCCC3C(=O)O2)CC[C@H]1O` (stereo partly shown) [Compound 211] were under 1000 nM and under 0.316 nM.
Taken in the same sequence, the figures for `CO[C@@H]1C[C@H](C[C@@H](C)[C@@H]2CC(=O)[C@H](C)/C=C(\C)[C@@H](O)[C@@H](OC)C(=O)[C@H](C)C[C@H](C)/C=C/C=C/C=C(\C)C(c3cccn3C)C[C@@H]3CC[C@@H](C)[C@@](O)(O3)C(=O)C(=O)N3CCCCC3C(=O)O2)CC[C@H]1O` (stereo partly shown) [Compound 212] were 1000 to 10000 nM and 0.316 to 3.16 nM.
As for `CO[C@@H]1C[C@H](C[C@@H](C)[C@@H]2CC(=O)[C@H](C)/C=C(\C)[C@@H](O)[C@@H](OC)C(=O)[C@H](C)C[C@H](C)/C=C/C=C/C=C(\C)C(OCCC3CCOCC3)C[C@@H]3CC[C@@H](C)[C@@](O)(O3)C(=O)C(=O)N3CCCCC3C(=O)O2)CC[C@H]1O` (stereo partly shown) [Compound 213], the IC50 on mTORC2 was 1000 to 10000 nM; on mTORC1 it was 0.316 to 3.16 nM.
For `CO[C@@H]1C[C@H](C[C@@H](C)[C@@H]2CC(=O)[C@H](C)/C=C(\C)[C@@H](O)[C@@H](OC)C(=O)[C@H](C)C[C@H](C)/C=C/C=C/C=C(\C)C(OC[C@H](O)c3ccccc3)C[C@@H]3CC[C@@H](C)[C@@](O)(O3)C(=O)C(=O)N3CCCCC3C(=O)O2)CC[C@H]1O` (stereo partly shown) [Compound 214], the IC50 at mTORC2 is 1000 to 10000 nM; at mTORC1, under 0.316 nM.
Taken in the same sequence, the figures for `CO[C@@H]1C[C@H](C[C@@H](C)[C@@H]2CC(=O)[C@H](C)/C=C(\C)[C@@H](O)[C@@H](OC)C(=O)[C@H](C)C[C@H](C)/C=C/C=C/C=C(\C)C(OCC(C)(C)O)C[C@@H]3CC[C@@H](C)[C@@](O)(O3)C(=O)C(=O)N3CCCCC3C(=O)O2)CC[C@H]1O` (stereo partly shown) [Compound 216] were 1000 to 10000 nM and 0.316 to 3.16 nM.
